The values that follow come from US20190185509A1, “2'2' CYCLIC DINUCLEOTIDES WITH PHOSPHONATE BOND ACTIVATING THE STING ADAPTOR PROTEIN” (INSTITUTE OF ORGANIC CHEMISTRY AND BIOCHEMISTRY ASCR, V.V.I., priority 2017, published 2019).

In experiment [1] the target is T1, WT STING (Homo sapiens, UniProt Q86WV6, H232R). The experiment is described as follows: Differential Scanning Fluorimetry (DSF) with WT STING. The experiment is classed as binding. Further details: truncated human WT STING or AQ STING (amino acid residues 140-343) with N-terminal 8×His and SUMO tag; 8xHis-SUMO (N, cleaved yes); made in house; host or cells: E. coli Rosetta-gami B (DE3). Particulars: thermal shift vs apoprotein; truncated human WT STING 0.1 mg/ml; 150 μM CDN. As to the method:
(§1) WT STING and AO STING Proteins
(§2) Purified PCR products were cleaved with restriction enzymes BamHI (cat. #R0136S, NEB, Ipswich, USA) and NotI (cat. #R0189S, NEB, Ipswich, USA) and cloned into the pSUMO vector linearized with the identical enzymes.
(§3) DNase I (cat. #D5025, Sigma Aldrich, Czech Republic) and RNase A (cat. #R6513, Sigma Aldrich, Czech Republic) were added (final concentration 50 μg/ml) together with MgCl2 (final concentration 5 mmol·l^−1) to the homogenate and bacteria were lysed using French Press G-M™ High-Pressure Cell Press Homogenizer (1500 psi, 3 cycles). […] The resin was poured into a chromatography column, washed with 50 ml buffer A (50 mmol·l^−1 TrisCl (pH 8.0), 800 mmol·l^−1 NaCl, 3 mmol·l^−1 β-mercaptol; 10% glycerol; 20 mmol·l^−1 imidazole) and 8-His-SUMO tagged STING proteins were eluted with 15 ml buffer A containing 300 mmol·l^−1 imidazole. […] Proteins were concentrated with Amicon® Ultra-15 10 K device (cat. #UFC901008, Merck Millipore, Billerica, USA) and flash frozen in liquid N2.
(§4) Differential Scanning Fluorimetry with WT STING and AQ STING
(§5) 20 μL solutions of the reaction mixtures were pipetted in triplicates into 96 well optical reaction plates and thermal denaturation of samples were performed on real time PCR cycler (LightCycler R 480 Instrument II-Roche, Basel, Switzerland). The first derivative of the thermal denaturation curves was performed to calculate denaturing temperatures of STING-CDN complexes and STING apoproteins. The thermal shift for each CDN was calculated by subtracting the average denaturing temperature of STING apoprotein from the average denaturing temperature of STING CDN complex.
Target sequence in this assay (Q86WV6 140-343 H232R): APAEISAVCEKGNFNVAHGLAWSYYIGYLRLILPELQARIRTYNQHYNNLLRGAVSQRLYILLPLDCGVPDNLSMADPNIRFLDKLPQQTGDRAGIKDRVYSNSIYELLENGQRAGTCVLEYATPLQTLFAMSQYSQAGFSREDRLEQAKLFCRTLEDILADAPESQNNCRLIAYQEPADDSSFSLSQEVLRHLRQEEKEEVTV

Experiment [2] deals with T1, WT STING. The experiment is described as follows: Digitonin assay using 293T wtSTING-FL reporter cells. The experiment is classed as cell-based. The note with it: 293T wtSTING-FL cells, ISRE firefly luciferase reporter; 30 min in Digitonin buffer, then 5 hours; 8-point dose-response. The source says:
ISRE Reporter Plasmid (pGL64.27-4×ISRE)
Two complementary oligonucleotides of the sequence […] […] […] […] […] […] […] The oligonucleotides were mixed in equal molar amounts, hybridized, and cleaved by restriction endonucleases HindIII (cat. #. R0104S, NEB, Ipswich, USA) and BglII (cat. #R0144S, NEB, Ipswich, USA). Ultimately, they were ligated into plasmid pGL4.27 (cat. #E6651, Promega, Madison, USA) linearized with the same enzymes. As result the sequence with four ISRE sites was placed upstream of the minimum promoter of firefly luciferase reporter gene.
After 5 minutes incubation at room temperature (RT), 250 μL of the mixture was added dropwise to the cells in one well. Cells were incubated 36 hours at 37° C. with 5% CO2, and then detached with 0.05% Trypsin and 0.22 g/L EDTA (both cat. #L0941, Biowest, Riverside, USA).
Transfected cells were seeded onto poly-D-lysine coated six well plates at density 50,000 cells per 1 cm^2 in DMEM medium with high glucose containing 10% heat inactivated FBS, 30 μg/mL blasticidin (cat. #ant-bl-05, InvivoGen, San Diego, USA), 0.06 mg/ml Penicillin G and 0.1 mg/ml Streptomycin Sulfate (both cat. #. L0018, Biowest, Riverside, USA). The medium was replenished every 3-4 days until visible colonies of cells resistant to blasticidin were formed.
Blasticidin resistant cells stably expressing WT STING were further transfected with pGL64.27-4×ISRE plasmid following the same procedure as described above. […] Homogeneous culture of stably double transfected cells was prepared by limiting dilution of cells in 96 well plates and wells with cells were selected that originated from a single cell.
The medium was removed next day and three fold serial dilutions of compounds in Digitonin buffer containing 50 mmol·l^−1 HEPES (cat. #H3375, Sigma Aldrich, Czech Republic) pH 7.0, 100 mmol·l^−1 KCl, 3 mmol·l^−1 MgCl2, 0.1 mmol·l^−1 DTT (cat. #D0632, Sigma Aldrich, Czech Republic), 85 mmol·l^−1 Sucrose (cat. #S7903, Sigma Aldrich, Czech Republic), 0.2% BSA (cat. #A2153, Sigma Aldrich, Czech Republic), 1 mmol·l^−1 ATP (cat. #A1852, Sigma Aldrich, Czech Republic), 0.1 mmol·l^−1 GTP (cat. #G8877, Sigma Aldrich, Czech Republic), and 10 μg/mL Digitonin A (cat. #D141, Sigma Aldrich, Czech Republic) were added to the cells. The buffer was removed after 30 minutes incubation at 37° C. with 5% CO2, the cells were washed once with 100 μl of cultivation medium, and 100 μl of medium was added to each well. The plates with cells were incubated for 5 hours at 37° C. with 5% CO2, 50 μl of the medium was removed and 30 μl of ONE-Glo™ Luciferase Assay System reagent (cat. #E6120, Promega, Madison, USA) was added to each well. Luminescence was read on Synergy H1 (Biotek, Winooski, USA).
Target sequence in this assay (Q86WV6 whole entry H232R, the tested form may be a part): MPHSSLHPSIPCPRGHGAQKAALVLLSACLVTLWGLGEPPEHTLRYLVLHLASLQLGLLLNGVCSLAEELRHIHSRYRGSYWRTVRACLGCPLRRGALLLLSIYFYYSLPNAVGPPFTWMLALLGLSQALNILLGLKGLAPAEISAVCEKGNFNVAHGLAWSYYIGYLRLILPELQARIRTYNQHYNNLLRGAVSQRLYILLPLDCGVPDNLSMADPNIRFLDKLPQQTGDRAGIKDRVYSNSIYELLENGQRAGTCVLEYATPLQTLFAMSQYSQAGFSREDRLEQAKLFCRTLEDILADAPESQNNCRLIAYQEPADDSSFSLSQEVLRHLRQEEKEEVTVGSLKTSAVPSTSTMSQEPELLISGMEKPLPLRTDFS

The target of a further experiment is T2, AQ STING (G230A-R293Q) (Homo sapiens, UniProt Q86WV6, G230A/H232R/R293Q).
T2 construct: truncated human WT STING or AQ STING (amino acid residues 140-343) with N-terminal 8×His and SUMO tag; 8xHis-SUMO (N, cleaved yes); made in house; host or cells: E. coli Rosetta-gami B (DE3)
The experiment is described as follows: Differential Scanning Fluorimetry (DSF) with AQ STING. The note with it: thermal shift vs apoprotein; truncated human AQ STING 0.1 mg/ml; 150 μM CDN. The experiment is classed as binding. As to the method:
as §1, §2, §3, §4, §5

T2 sequence (Q86WV6 140-343 G230A/H232R/R293Q): as the sequence (Q86WV6 140-343 H232R) above, with G91A, R154Q counted along it

Turning to `Nc1ncnc2c1ncn2[C@@H]1O[C@@H]2OCP(=O)(O)O[C@@H]3[C@H](O)[C@@H](OCP(=O)(O)O[C@@H]1[C@@H]2O)O[C@H]3n1cnc2c(N)ncnc21` [Compound 11, (1R,6R,8R,9R,14R,16R,17S,18S)-8,16-bis(6-amino-9H-purin-9-yl)-3,11,17,18-tetrahydroxy-2,5,7,10,13,15-hexaoxa-3,11-diphosphatricyclo[12.2.1.1^6,9]octadecane 3,11-dioxide], the “DSF ΔTm WT STING” value at WT STING [1] is 2.5 °C. Besides, the 50% effective concentration (EC50) on WT STING [2] stood at 4.2 µM. Also, the “DSF ΔTm AQ STING” value on AQ STING (G230A-R293Q) worked out at 7.9 °C.

For `Nc1ncnc2c1ncn2[C@@H]1O[C@@H]2COP(=O)(O)O[C@@H]3[C@H](O)[C@@H](COCP(=O)(O)O[C@@H]1[C@@H]2O)O[C@H]3n1cnc2c(N)ncnc21` [Compound 12, (1R,6R,8R,9R,15R,17R,18R,19R)-8,17-bis(6-amino-9H-purin-9-yl)-3,11,18,19-tetrahydroxy-2,4,7,10,13,16-hexaoxa-3,11-diphosphatricyclo[13.2.1.1^6,9]nonadecane 3,11-dioxide], on WT STING [1], the “DSF ΔTm WT STING” value turned out to be 2.0 °C. Moreover, the EC50 on WT STING [2] was 6 µM. The “DSF ΔTm AQ STING” value at AQ STING (G230A-R293Q) is 6.3 °C.

In the case of `C[C@]12OCP(=O)(O)O[C@H]3[C@H](n4cnc5c(N)ncnc54)O[C@](C)(OCP(=O)(O)O[C@@H]([C@H](n4cnc5c(N)ncnc54)O1)[C@@H]2O)[C@H]3O` [Compound 13, (1R,6R,8R,9R,14R,16R,17S,18S)-8,16-bis(6-amino-9H-purin-9-yl)-3,11,17,18-tetrahydroxy-6,14-dimethyl-2,5,7,10,13,15-hexaoxa-3,11-diphosphatricyclo[12.2.1.1^6,9]octadecane 3,11-dioxide], the “DSF ΔTm WT STING” value on WT STING [1] stood at 0.6 °C.

For `Nc1ncnc2c1ncn2[C@@H]1O[C@@H]2OCP(=O)(O)O[C@@H]3[C@H](O)[C@@H](COP(=O)(O)O[C@@H]1[C@@H]2O)O[C@H]3n1cnc2c(N)ncnc21` [Compound 14, (1R,6R,8R,9R,14R,16R,17S,18R)-8,16-bis(6-amino-9H-purin-9-yl)-3,11,17,18-tetrahydroxy-2,4,7,10,13,15-hexaoxa-3,11-diphosphatricyclo[12.2.1.1^6,9]octadecane 3,11-dioxide], the “DSF ΔTm WT STING” value on WT STING [1] is 0.7 °C. In addition, the EC50 at WT STING [2] amounted to 2.35 µM. The “DSF ΔTm AQ STING” value on AQ STING (G230A-R293Q) turned out to be 20.8 °C.

For `Nc1ncnc2c1ncn2[C@@H]1O[C@@H]2COP(=O)(O)O[C@H]3[C@H](O)[C@@H](COCP(=O)(O)O[C@@H]1[C@@H]2O)O[C@H]3n1cnc2c(N)ncnc21` [Compound 15, (1S,6R,8R,9R,15R,17R,18R,19R)-8,17-bis(6-amino-9H-purin-9-yl)-3,11,18,19-tetrahydroxy-2,4,7,10,13,16-hexaoxa-3,11-diphosphatricyclo[13.2.1.16,9]nonadecane 3,11-dioxide], the “DSF ΔTm WT STING” value at WT STING [1] stood at 1.7 °C. Also, the half-maximal effective concentration (EC50) at WT STING [2] turned out to be 16.4 µM. The “DSF ΔTm AQ STING” value on AQ STING (G230A-R293Q) worked out at 5.5 °C.
